Entries after “also recorded” stand apart in the source; their conditions may differ. Ends that are not written are not given here.
Tests used:
retinal ganglion neurons [1] = assay: Survival of retinal ganglion neurons after NMDA injection into the eye (Brn3A mRNA, quantitative RT-PCR); format: in vivo, C57 B16 mice; details: mice, after 4 days
Experimental: C57 B16 mice received, in the right eye, 1 μl of injection buffer (PBS or 9‰ NaCl) containing either 1 mM of NMDA, or 1 mM of NMDA supplemented with 30 ng of the chimeric polypeptide, and in the left eye, the same volume of injection buffer, without additive.
The survival of the ganglion neurons was determined by measuring the level of expression of Brain 3A (Brn3A), a transcription factor which, in the retina, is specifically expressed in the ganglion neurons (Xiang et al., J. Neurosci., 15, 4762-4785, 1995).
After 4 days, the animals are sacrificed, the retinas are removed, and the mRNA is extracted therefrom.
The level of expression of Bm3A mRNA was determined by quantitative RT-PCR using the hypoxanthine phosphoribosyltransferase (HPRT) gene as reference gene, and the ratio between the expression of the Bm3A mRNA in the right eye and in the left eye was calculated.
The results are illustrated by FIG. 5. The additives used are indicated along the x-axis; the ratio between the amounts of Brn3A mRNA (standardized relative to the HPRT mRNA) in the right eye and in the left eye is indicated along the y-axis.

[2] = system: endogenous transfer of Otx2 to cells of the visual cortex; assay: Infusion of peptides into the right visual cortex of adult mice, count of cells expressing Otx2; format: in vivo; details: for number of cells expressing Otx2: adult mice, 0.25 mg/ml, 1 μl/h for 7 days into right visual cortex, infused vs control hemisphere
Experimental: For this purpose, the RK-Otx2 peptide (0.25 mg/ml), the AA-Otx2 peptide (0.25 mg/ml), or PBS buffer, combined with polysialic acid (0.25 mg/ml, in order to enable diffusion of the peptides and to avoid nonspecific binding thereof to neurons expressing polysialic acid at their surface), were slowly infused (1 μl/h) for 7 days into the right visual cortex of adult mice, using osmotic minipumps (Alzet 1003D, Alza) connected to stereotaxically implanted cannulas (Hensch et al., Science, 282, 1504-8, 1998; Fagiolini & Hensch, Nature, 404, 183-6, 2000). At the end of the infusion, the mice are perfused with 4% PFA, and brain sections (25 μm) are cut in order to study the localization of Otx2 and that of the RK-Otx2 peptide. Otx2 is visualized using a rat anti-Otx2 monoclonal antibody diluted to 1/200 (Sugiyama et al., Cell, 134, 508-20, 2008), followed by a donkey anti-rat antibody labeled with Alexa 488 (Molecular Probes), diluted to 1/2000. The RK-Otx2 peptide is visualized using streptavidin labeled with Cy5.
The cells expressing Otx2 were counted over a surface area of 700×350 μm encompassing layers I/II and IV of the binocular zone of the visual cortex.
It was verified, by Sytox green labeling, that the infusion had no effect in itself on the number of cells. In order to be sure that the decrease in the number of cells expressing Otx2 was not due to cell death, an infusion of this peptide was carried out according to the protocol described above, and the number of cells expressing Otx2 was measured 8 days after the end of the infusion.

[3] = system: binding of AP-Nt-Otx2 to bipolar cells and ganglion cells; assay: Antagonism of AP-Nt-Otx2 binding to sections of retinas by peptides; details: 2 μg/ml of peptide
Experimental: In order to verify that the RK-Otx2 peptide indeed had the same binding specificity as AP-Nt-Otx2, the ability of the RK-Otx2 and AA-Otx2 polypeptides to antagonize the binding of AP-Nt-Otx2 was tested. The test for binding of AP-Nt-Otx2 to sections of retinas was carried out as described above, with the exception that the incubation of the supernatant containing AP-Nt-Otx2 was carried out in the presence of 2 μg/ml of the RK-Otx2 peptide or of the AA-Otx2 peptide.

retinal ganglion neurons [4] = details: previously shown, application PCT/FR 2009/000031; cited from earlier work
[5] = system: binding of AP-Nt-Otx2 to its target cells of the cerebral cortex; assay: Blocking of AP-Nt-Otx2 binding to cortical target cells on adult mouse brain sections; details: whole Otx2 1 μg/ml, peptides 2 μg/ml
Experimental: The interaction, with the cells of the cerebral cortex, of the AP-Otx2, AP-Nt-Otx2, AP-Hd-Otx2 and AP-HdAA-Otx2 fusion proteins ([…] a variant of AP-Nt-Otx2 in which the RK amino acid doublet has been replaced with the AA doublet), alone (culture supernatant diluted to 1/20th) or in the presence of a whole Otx2 (1 μg/ml) or of the RK-Otx2 or AA-Otx2 peptides (2 μg/ml), was tested on cryostat sections of adult mouse brains, using the protocol described in example 1 above.

[6] = system: parvalbumin neurons of the visual cortex; assay: WFA labeling and parvalbumin expression in visual cortex after peptide infusion; format: in vivo; details: adult mice
Experimental: In addition, treated mouse brain frontal sections were prepared, as described in example 4 above, in order to determine the influence of the RK-Otx2 peptide on parvalbumin neurons. The sections were labeled either with WFA, as described in example 3, or using a mouse anti-parvalbumin monoclonal antibody ( 1/500, Sigma-Aldrich), which was visualized using a donkey anti-mouse antibody labeled with Cy3. The labeled cells were quantified as described in example 4.

[7] = system: plasticity of the visual cortex; assay: Ocular dominance plasticity after 4 days monocular deprivation, single-unit extracellular electrophysiology; format: in vivo; details: adult mice; for ocular dominance induced by monocular deprivation: 4 days monocular deprivation after treatment
Experimental: The RK-Otx2 peptide or the AA-Otx2 peptide was infused in adult mice (therefore after closing of the critical period of plasticity), as described in example 4 above. Chondroitinase-ABC, or the injection buffer (deionized water+0.1% BSA), were injected (0.4 μl for each injection) at 3 sites surrounding the visual cortex (AP lambda, LM 1.5 mm; AP lambda, 4.0 mm; AP+1.5 mm; LM 2.5 mm) at two different depths (300 and 500 μm).
After infusion of the peptides or injection of chondroitinase ABC, the mice are subjected to monocular deprivation for 4 days, and the responses to visual stimuli are then measured by single-unit extracellular electrophysiology. The electrophysiology recordings are carried out under nembutal/chlorprothixene anesthesia using standard techniques (Gordon & Stryker, J Neurosci, 16, 3274-86, 1996; Mataga et al., Neuron, 44, 1031-41, 2004). 5 to 7 single-unit recordings were carried out for each mouse, on both sides of the medial-lateral axis of the primary visual cortex, in order to cover the monocular zone and the binocular zone, and to avoid sampling biases. Cell dominance scores were assigned to the cell responses, using a 7-point classification system (Wiesel & Hubel, J Neurophysiol, 26, 978-93, 1963) (Gordon & Stryker, J Neurosci, 16, 3274-86, 1996). The ocular dominance in the binocular zone was calculated for each mouse according to a contralateral bias index (CBI), determined as follows:
(CBI): [(n1−n7)+⅔(n2−n6)+⅓(n3−n5)+N]/2N, where N=total number of cells and nx=number of cells corresponding to an ocular dominance score of x.
This weighted mean of the bias in favor of one or other eye can range from 0, for complete ipsilateral dominance, to 1, for complete contralateral dominance.

[8] = system: retinal ganglion neurons (RGCs) and bipolar cells on sections of retina; assay: Binding test of AP fusion proteins and biotinylated peptides on sections of retina; details: supernatants diluted to 1/20, 2 hours at room temperature, alkaline phosphatase detection
Experimental: The sequences encoding the human Otx2 protein or encoding the fragments tested were cloned into the vector pAPtag-5 (GenHunter), in frame with the sequence encoding alkaline phosphatase. The various constructions carried out are represented diagrammatically in FIG. 1. HEK 293 cells cultured in culture dishes 10 cm in diameter were transfected with 10 μg of each of the vectors constructed, purified beforehand, using Lipofectamine 2000 (Invitrogen) according to the manufacturer's instructions. The transfected cells were incubated for 48 hours in DMEM/F12, supplemented with 10% of fetal bovine serum (FCS). The supernatant was collected, centrifuged at 100×g for 5 minutes and stored at −80° C. This supernatant is used, without purification, for testing the binding of the chimeric proteins on sections of retina. […]
Biotinylated peptides corresponding to various fragments of the N-terminal domain+homeodomain portion of Otx2 were synthesized and the binding thereof to sections of retina, prepared as described above, was tested. The incubation of the peptides with the sections of retina was carried out under the same conditions as those described above, and then the sections bearing the bound peptides were incubated with alkaline phosphatase-labeled streptavidin, and the alkaline phosphatase activity was detected as described above.

[9] = system: GAGs of the perineuronal net associated with parvalbumin neurons; assay: Chondroitinase ABC treatment of adult mouse brain sections: WFA labeling and AP fusion protein binding; details: brain sections incubated 24 hours with chondroitinase ABC 2 U/ml
Experimental: In order to determine whether the perineuronal net associated with parvalbumin neurons was involved in the binding between AP-Nt-Otx2 and its target cells, the binding of AP-Otx2 was tested on cryostat sections of adult mouse brains fixed with methanol, and then incubated for 24 hours in the presence of chondroitinase ABC (2 U/ml) in a buffer containing 50 mM Tris [pH 8.0], 40 mM of sodium acetate, 0.1% BSA and protease inhibitors. In parallel, the sections, untreated or treated with chondroitinase ABC, were incubated with 0.01 mg/ml of Wisteria floribunda agglutinin lectin (WFA; Sigma-Aldrich), which binds to the GAGs of the perineuronal net, and which is labeled with FITC.

## CN[C@H](CC(=O)O)C(=O)O [NMDA, N-methyl-D-aspartate, reference compound]
Retinal ganglion neurons [1]; 1 μl of 1 mM NMDA alone into right eye, Brn3A mRNA
  decrease in the amount of ganglion neurons: approximately 60%

## AAQRRERTTFTRAQL (Targeting peptide inactive mutant) [AA-Otx2]
[2]
  number of cells expressing Otx2: only a small, insignificant reduction
[3]
  blocking of the binding of AP-Nt-Otx2 to the bipolar cells and ganglion cells: has no effect on this binding

## Otx2: Orthodenticle homolog 2, homeoprotein containing a bicoid-type homeodomain
Retinal ganglion neurons [4]
  protection of retinal ganglion neurons against the toxic effects of NMDA: protects retinal ganglion neurons against the toxic effects of N-methyl-D-aspartate (NMDA)
[5]
  blocking of the binding of AP-Nt-Otx2 to its cortical target cells: block the binding of AP-Nt-Otx2 to its target cells

## RKQRRERTTFTRAQL (also: biotin (position not given here)) [RK-Otx2]
[6]; after peptide infusion
  expression of the sites for the binding of WFA and of parvalbumin: decreases the expression of the sites for the binding of WFA, and also that for parvalbumin
[6]; infused vs control hemisphere
  decrease in the number of cells surrounded by sites for the binding of WFA: 51.3%
  decrease in the number of parvalbumin-positive cells: 56.2%
[2]; 8 days after the end of infusion
  amount of peptide detected in the visual cortex: only very small amounts
[2]; 8 days after the end of the infusion
  number of cells expressing Otx2 in the treated hemisphere: restored to the level of that of the control hemisphere
[2]
  number of cells expressing Otx2: significantly reduces the number of cells expressing Otx2
[7]
  ocular dominance induced by monocular deprivation: induces an ocular dominance
[7]; after peptide infusion and 4 days monocular deprivation, decrease from 0.7
  contralateral bias index (CBI): 0.57
[8]
  binding to retinal cells: has the same binding specificity as the AP-Otx2 and AP-Nt-Otx2 fusion proteins; also recorded: binds, like AP-Nt-Otx2, to the ganglion and bipolar cells
[5]
  blocking of the binding of AP-Nt-Otx2 to its cortical target cells: block the binding of AP-Nt-Otx2 to its target cells
[3]
  blocking of the binding of AP-Nt-Otx2 to the bipolar cells and ganglion cells: blocks the binding of AP-Nt-Otx2 to the bipolar cells and to the ganglion cells

## chimeric polypeptide: amino acids 1-97 of Otx2 (N-terminal domain and homeodomain) fused with the VP16 trans-activator domain of the herpes virus (SEQ ID NO: 4) (MLGDGDSPGPGFTPHDSAPYGALDMADFEFEQMFTDALGIDEYGG; VP16 transactivator domain)
Retinal ganglion neurons [1]; 1 μl into right eye, 1 mM NMDA plus 30 ng chimeric polypeptide
  protection of ganglion neurons against the toxic effects of NMDA (Brn3A mRNA ratio right eye/left eye): effectively protects the ganglion neurons against the toxic effects of the NMDA

## chondroitinase ABC
[7]
  ocular dominance induced by monocular deprivation: as in those treated with the chondroitinase ABC
[9]
  effect of chondroitinase ABC treatment on binding of the AP fusion protein: abolishes the binding of AP-Nt-Otx2
  effect on GAGs of the perineuronal net (WFA labeling): destroys the GAGs of the perineuronal net

Source: patent US10842852B2, “Methods of delivering a polypeptide molecule to Otx2 target cells using an Otx2 targeting peptide” (Centre National de la Recherche Scientifique, priority 2009, dated 2020)
